Assay [1] addresses T1, N-type calcium channels (IMR-32 cells) (Homo sapiens, UniProt Q00975).
T1 construct: host or cells: IMR-32 cells, differentiated with dibutyryl cAMP and bromodeoxyuridine
Description: N-type Ca2+ channel blocking in IMR-32 cells using the fluorescent Ca2+ indicator Indo-1. The format is cell-based. The conditions noted are these: 5 μM nitrendipine to block L-type channels, KCl depolarization, 30° C., read-out: Inhibition of Ca^+2 Influx in IMR-32 Cells IC50. As for the experimental part: Measurement of N-type Ca2+ Channel Blocking Potencies of Compounds in IMR-32 Cells Using the Fluorescent Ca2+ Indicator Indo-1 IMR-32 cells are a human tumoral cell line of neural origin. […] Calcium flux into these cells may be induced by stimulation with elevated potassium concentrations. The L-channel component of calcium flux may be blocked by adding 5 μM nitrendipine. The remaining component of calcium entry into the IMR-32 cells is due to calcium flux through N-type calcium channels. Intracellular calcium concentrations are measured using the fluorescent calcium indicator Indo-1. The effect of drug concentration on calcium uptake is studied. Methods The IMR-32 cell line was obtained from the American Type Culture Collection (Rockville, Md.). Cells were grown in Eagle's Minimum Essential Medium with Earle's salts supplemented with 10% fetal bovine serum, 2 mM L-Gln and antibiotic/antimicotic mixture (Gibco). At approximately 80% confluency, differentiation was induced by the addition of 1 mM dibutyryl cAMP and 2.5 μM bromodeoxyuridine to the medium. After 7 to 13 days of differentiation, cells were detached using 0.5 mM EDTA and loaded with five 5 μM Indo-1 acetoxymethyl ester (Molecular Probes, Eugene, Oreg.) at 30° C. for 45 minutes. Loaded cells were washed twice, resuspended (~10^7 cells/mL) in assay buffer (10 mM HEPES/Tris pH 7.4 in Hank's Balanced Salt Solution without bicarbonate or phenol red containing 0.5% bovine serum albumin) and kept on ice until use. Fluorescence measurements were carried out in a Photon Technology International (PTI, South Brunswick, N.J.) Model RF-[…] spectrofluorometer with dual emission monochromators using excitation at 350 nm and emission at 400 and 490 nm. The instrument was equipped with a thermostatted cuvette holder with stirring capabilities as well as with a computer-controlled pump which allowed for reagent addition during measurement. Instrument control and data collection was done by PTI's OSCAR software running on an IBM compatible computer. […] At 20 seconds after the start of reading, cells were depolarized by the addition of 160 μL of stimulation solution (1M KCl, 68 mM CaCl2) to the cuvette via the computer-controlled pump. Ratio of dual emission signals (400 nm/490 nm), which is proportional to intracellular Ca^2+ concentration, was plotted against time, and the difference between maximal response after stimulation and basal value (before stimulation) was determined. […] IC50 values of test compounds were calculated by fitting a four-parameter logistic function to the data using the least squares method.

The subject of assay [2] is ischemia and pain. Conditions: Bowersox et al. 1994; cited from earlier work.

T1 sequence (Q00975 whole entry): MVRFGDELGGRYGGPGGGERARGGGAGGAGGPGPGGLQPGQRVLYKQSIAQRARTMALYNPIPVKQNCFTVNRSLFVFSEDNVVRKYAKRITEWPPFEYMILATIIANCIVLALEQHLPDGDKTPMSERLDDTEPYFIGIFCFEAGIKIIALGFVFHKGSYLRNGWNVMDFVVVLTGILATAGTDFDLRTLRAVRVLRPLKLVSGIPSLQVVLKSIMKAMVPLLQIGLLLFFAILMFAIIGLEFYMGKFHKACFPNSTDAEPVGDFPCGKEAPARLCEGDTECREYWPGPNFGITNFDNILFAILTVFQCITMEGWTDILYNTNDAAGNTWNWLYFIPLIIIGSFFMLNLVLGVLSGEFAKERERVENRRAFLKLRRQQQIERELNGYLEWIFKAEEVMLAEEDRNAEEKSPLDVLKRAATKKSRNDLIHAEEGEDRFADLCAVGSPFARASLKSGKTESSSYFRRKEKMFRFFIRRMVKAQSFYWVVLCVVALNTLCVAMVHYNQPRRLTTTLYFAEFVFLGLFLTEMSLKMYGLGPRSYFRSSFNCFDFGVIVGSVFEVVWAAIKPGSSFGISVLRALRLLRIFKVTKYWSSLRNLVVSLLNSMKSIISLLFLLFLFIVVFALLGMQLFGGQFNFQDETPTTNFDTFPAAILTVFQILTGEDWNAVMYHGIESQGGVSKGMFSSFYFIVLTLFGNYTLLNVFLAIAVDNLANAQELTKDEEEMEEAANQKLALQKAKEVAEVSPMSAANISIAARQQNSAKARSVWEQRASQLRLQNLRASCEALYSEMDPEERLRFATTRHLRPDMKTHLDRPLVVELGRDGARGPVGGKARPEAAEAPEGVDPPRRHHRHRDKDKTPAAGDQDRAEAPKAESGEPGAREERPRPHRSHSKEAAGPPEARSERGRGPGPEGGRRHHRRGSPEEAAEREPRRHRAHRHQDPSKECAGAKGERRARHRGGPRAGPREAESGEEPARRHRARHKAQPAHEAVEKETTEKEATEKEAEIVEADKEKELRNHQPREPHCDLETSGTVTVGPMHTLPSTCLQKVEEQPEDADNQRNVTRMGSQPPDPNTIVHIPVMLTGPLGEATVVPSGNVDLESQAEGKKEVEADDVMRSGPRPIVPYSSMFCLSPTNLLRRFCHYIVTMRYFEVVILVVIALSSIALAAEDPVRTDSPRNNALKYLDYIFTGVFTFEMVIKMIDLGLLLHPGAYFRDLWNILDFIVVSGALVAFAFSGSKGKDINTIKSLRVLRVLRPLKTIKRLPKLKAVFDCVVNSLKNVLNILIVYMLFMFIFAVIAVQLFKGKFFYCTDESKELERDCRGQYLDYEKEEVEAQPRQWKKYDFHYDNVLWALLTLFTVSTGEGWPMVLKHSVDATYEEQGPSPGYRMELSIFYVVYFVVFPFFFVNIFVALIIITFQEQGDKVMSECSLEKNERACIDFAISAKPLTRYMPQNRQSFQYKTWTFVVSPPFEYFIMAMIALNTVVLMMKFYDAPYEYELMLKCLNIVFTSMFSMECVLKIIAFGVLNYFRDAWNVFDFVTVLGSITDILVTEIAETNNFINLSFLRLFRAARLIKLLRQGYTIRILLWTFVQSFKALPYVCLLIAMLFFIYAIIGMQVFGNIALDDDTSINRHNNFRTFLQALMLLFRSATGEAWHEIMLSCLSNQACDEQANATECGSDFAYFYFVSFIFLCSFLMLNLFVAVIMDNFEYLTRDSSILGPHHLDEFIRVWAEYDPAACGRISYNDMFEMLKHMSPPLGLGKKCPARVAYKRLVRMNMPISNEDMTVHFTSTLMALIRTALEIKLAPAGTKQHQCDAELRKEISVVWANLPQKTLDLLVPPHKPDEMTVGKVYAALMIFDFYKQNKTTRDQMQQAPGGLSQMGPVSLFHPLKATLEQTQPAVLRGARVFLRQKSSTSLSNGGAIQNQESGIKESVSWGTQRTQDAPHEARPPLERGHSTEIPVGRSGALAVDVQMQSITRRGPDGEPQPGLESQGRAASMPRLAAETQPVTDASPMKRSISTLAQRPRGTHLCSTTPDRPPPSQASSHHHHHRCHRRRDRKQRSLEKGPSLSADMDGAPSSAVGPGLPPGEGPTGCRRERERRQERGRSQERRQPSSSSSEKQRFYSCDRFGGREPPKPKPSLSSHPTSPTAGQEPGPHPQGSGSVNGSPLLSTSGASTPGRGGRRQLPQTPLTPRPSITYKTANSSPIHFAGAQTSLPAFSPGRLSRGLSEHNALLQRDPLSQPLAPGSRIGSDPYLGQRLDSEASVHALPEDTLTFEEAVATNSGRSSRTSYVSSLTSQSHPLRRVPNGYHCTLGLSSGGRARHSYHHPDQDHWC

Take `Oc1c(CN2CCCCCC2)ccc2c1CCN(CCCC(c1ccccc1)c1ccccc1)C2` [Example 6, 6-Azepan-1-ylmethyl-2-(4,4-diphenylbutyl)-1,2,3,4-tetrahydroisoquinolin-5-o]: in assay [1], the IC50 (in general, the concentration at which inhibition is half-maximal) was 0.82 µM.
Take `Oc1c(CNC2CCCCC2)ccc2c1CCN(CCCC(c1ccccc1)c1ccccc1)C2` [Example 7, 6-Cyclohexylaminomethyl-2-(4,4-diphenylbutyl)-1,2,3,4-tetrahydroisoquinolin-5-ol]: the IC50 in assay [1] was 1 µM.
Consider `c1ccc(C(CCCN2CCc3c(ccc4c3OCN(C3CCCCC3)C4)C2)c2ccccc2)cc1` [Example 8, 2-Cyclohexyl-7-(4,4-diphenylbutyl)-2,3,5,6,7,8-hexahydro-1H-4-oxa-2,7-diazaphenanthrene], for which the IC50 in assay [1] is 1.1 µM.
Turning to `Oc1c(CN2CCCCCC2)ccc2c1CCN(CCCC(c1ccc(F)cc1)c1ccc(F)cc1)C2` [Example 11, 6-Azepan-1-ylmethyl-2-[4,4-bis-(4-fluorophenyl)-butyl]-1,2,3,4-tetrahydroisoquinolin-5-ol], the IC50 in assay [1] amounted to 1.3 µM.
As for `CSCC[C@@H]1NC(=O)[C@H](CC(C)C)NC(=O)[C@H](CCCNC(=N)N)NC(=O)[C@H](CO)NC(=O)[C@@H]2CSSC[C@@H]3NC(=O)[C@H](CO)NC(=O)CNC(=O)[C@H]([C@@H](C)O)NC(=O)[C@H](CSSC[C@H](N)C(=O)N[C@@H](CCCCN)C(=O)NCC(=O)N[C@@H](CCCCN)C(=O)NCC(=O)N[C@@H](C)C(=O)N[C@@H](CCCCN)C(=O)N2)NC(=O)[C@H](CSSC[C@@H](C(N)=O)NC(=O)[C@H](CCCCN)NC(=O)CNC(=O)[C@H](CO)NC(=O)[C@H](CCCNC(=N)N)NC3=O)NC(=O)[C@H](CC(=O)O)NC(=O)[C@H](Cc2ccc(O)cc2)NC1=O` [SNX-111], the “activity in models of ischemia and pain (in words)” value in assay [2] was “demonstrated activity in a number of models of ischemia and pain”.

The values are drawn from US5767129A, “Substituted quinolines and isoquinolines as calcium channel blockers, their preparation and the use thereof” (Warner-Lambert Company, priority 1996, dated 1998).
